The values that follow come from US20070161513A1, “3-[1-halo-1-arylmethanesulfonyl]- and 3-[1-halo-1-heteroarylmethanesulfonyl]- isoxazoline derivatives, processes for preparing them, and use as herbicides and plant growth regulators” (Bayer CropScience GmbH, priority 2005, published 2007).

Experiment [1] has as its system weed plants such as Sinapis alba, Echinochloa crus-galli, Cyperus iria, Avena spp., Stellaria media, Setaria spp., and Amaranthus retroflexus. Put plainly: Post-emergence herbicidal activity (pot test under glass). Format: in vivo. As to conditions: applied post-emergence (one-leaf stage) at a rate of 2 kg or less of active substance per hectare; WP formulation; visual scoring after about 3 weeks vs untreated controls. The protocol:
2. Post-Emergence Herbicidal Activity Seeds of monocot and dicot weed and crop plants are planted out in sandy loam soil in wood fiber pots, covered with soil, and cultivated under glass under good growth conditions. Two-three weeks after sowing, the trial plants are treated at the one-leaf stage. The test compounds, formulated as wettable powders (WP), are then sprayed onto the green parts of the plants, at a water application rate of 600 I/ha (converted), in various dosages, with the addition of 0.2% of wetting agent. After the trial plants have stood for about 3 weeks under glass under optimum growth conditions, the effect of the products is scored visually in comparison with untreated controls. (herbicidal activity in percent (%): 100% activity=plants have died, 0% activity=like control plants).

Experiment [2] has as its system weed plants such as Avena spp., Lolium multiflorum, Stellaria media, Setaria spp., Sinapis alba and Amaranthus retroflexus. Put plainly: Pre-emergence herbicidal activity (pot test under glass). Format: in vivo. As to conditions: applied pre-emergence at a rate of 2 kg or less of active substance per hectare; WP formulation; visual scoring after 3 weeks vs untreated controls. The text has this: 1. Pre-Emergence Herbicidal Activity Seeds of monocot and dicot weed and crop plants are planted out in sandy loam soil in wood fiber pots and covered with soil. The test compounds, formulated as wettable powders (WP), are then applied to the surface of the soil cover, in the form of an aqueous suspension, at a water application rate of 600 I/ha (converted), in various dosages, with the addition of 0.2% of wetting agent. After the treatment, the pots are set up under glass and held under good growth conditions for the test plants. Visual scoring of the emergence damage to the trial plants is made after a trial period of 3 weeks in comparison with untreated controls (herbicidal activity in percent (%): 100% activity=plants have died, 0% activity=like control plants).

Structures are written as SMILES.

In the case of `CC1(C)CC(S(=O)(=O)C(Cl)c2ccccc2)=NO1` (stereo not drawn) [Compound I-1.1, 3-{[Chloro(phenyl)methyl]sulfonyl}-5,5-dimethyl-4,5-dihydroisoxazole], in experiment [1], the “herbicidal activity against weed plants, post-emergence” value (“herbicidal activity … post-emergence” below) is “very good herbicidal activity”. Also, in experiment [2], the “herbicidal activity against weed plants, pre-emergence” value (from here on “herbicidal activity … pre-emergence”) is on record as “very good herbicidal activity”.
In the case of `CC1(C)CC([S+]([O-])C(Cl)c2ccccc2)=NO1` (stereo not drawn) [III-1.1], the “herbicidal activity … post-emergence” value in experiment [1] is on record as “very good herbicidal activity”. Further, the “herbicidal activity … pre-emergence” value in experiment [2] is on record as “very good herbicidal activity”.
With `CC1(C)CC([S+]([O-])C(Cl)c2c(F)cccc2Cl)=NO1` (stereo not drawn) [III-5.1, 3-{[Chloro(2-chloro-6-fluorophenyl)methyl]sulfinyl}-5,5-dimethyl-4,5-dihydroisoxazole], the “herbicidal activity … post-emergence” value in experiment [1] is on record as “very good herbicidal activity”. Besides, the “herbicidal activity … pre-emergence” value in experiment [2] was “very good herbicidal activity”.
